In patent publication US7531540B2, “Phthalazinone-piperidino-derivatives as PDE4 inhibitors” (Nycomed GmbH, priority 2001, dated 2009):

System: PDE4
Assay: Inhibition of PDE4 activity ([3H]cAMP hydrolysis, cytosol from human neutrophils)
Format: biochemical
Details: 0.5 μM cAMP, Motapizone (1 μM) included to suppress PDE3 activity, 15 min at 37° C.
Experimental: Method for Measuring Inhibition of PDE4 Activity
PDE4 activity was determined as described by Thompson et al. (Adv Cycl Nucl Res 10: 69-92, 1979) with some modifications (Bauer and Schwabe, Naunyn-Schmiedeberg's Arch Pharmacol 311: 193-198, 1980). At a final assay volume of 200 μl (96 well microtiter plates) the assay mixture contained 20 mM Tris (pH 7.4), 5 mM MgCl2, 0.5 μM cAMP, [^3H]cAMP (about 30,000 cpm/assay), the test compound and an aliquot of cytosol from human neutrophils which mainly contains PDE4 activity as described by Schudt et al. (Naunyn-Schmiedeberg's Arch Pharmacol 344: 682-690, 1991); the PDE3-specific inhibitor Motapizone (1 μM) was included to suppress PDE3 activity originating from contaminating platelets. Serial dilutions of the compounds were prepared in DMSO and further diluted 1:100 (v/v) in the assays to obtain the desired final concentrations of the inhibitors at a DMSO concentration of 1% (v/v) which by itself only slightly affected PDE4 activity.
After preincubation for 5 min at 37° C., the reaction was started by the addition of substrate (cAMP) and the assays were incubated for further 15 min at 37° C. 50 μl of 0.2 N HCl was added to stop the reaction and the assays were left on ice for about 10 min. Following incubation with 25 μg 5′-nucleotidase (Crotalus atrox snake venom) for 10 min at 37° C., the assays were loaded on QAE Sephadex A-25 (1 ml bed volume). The columns were eluted with 2 ml of 30 mM ammonium formiate (pH 6.0) and the eluate was counted for radioactivity. Results were corrected for blank values (measured in the presence of denatured protein) which were below 5% of total radioactivity. […] The IC50 -values for the compounds according to the invention for the inhibition of the PDE4 activity were determined from the concentration-inhibition curves by nonlinear-regression.
The inhibitory values determined for the compounds according to the invention follow from the following table A, in which the numbers of the compounds correspond to the numbers of the examples.

SMILES: COc1ccc(C2=NN(C3CCN(C(=O)NC(C)(C)C)CC3)C(=O)[C@H]3CC=CC[C@@H]23)c2c1OC(C)(C)C2 (relative stereo) [compound 9, (cis)-4-[4-(7-Methoxy-2,2-dimethyl-2,3-dihydro-benzofuran-4-yl)-1-oxo-4a,5,8,8a-tetrahydro-1H-phthalazin-2-yl]-piperidine-1-carboxylic acid tert-butylamide]
- Inhibition of PDE4 acitivity [measured as -logIC50 (mol/l)]: 10.65

SMILES: CCOc1ccc(C2=NN(C3CCN(C(=O)Nc4ccccc4)CC3)C(=O)[C@@H]3CC=CC[C@H]23)cc1OCC [compound 7, 4-[(4aS,8aR)-4-(3,4-Diethoxyphenyl)-1-oxo-4a,5,8,8a-tetrahydro-1H-phthalazin-2-yl]-piperidine-1-carboxylic acid phenylamide]
- Inhibition of PDE4 acitivity [measured as -logIC50 (mol/l)]: 10.28

SMILES: COc1ccc(C2=NN(C3CCN(C(=O)NC(C)(C)C)CC3)C(=O)[C@@H]3CC=CC[C@H]23)cc1OC [compound 8, 4-[(4aS,8aR)-4-(3,4-Dimethoxyphenyl)-1-oxo-4a,5,8,8a-tetrahydro-1H-phthalazin-2-yl]-piperidine-1-carboxylic acid tert-butylamide]
- Inhibition of PDE4 acitivity [measured as -logIC50 (mol/l)]: 10.18

SMILES: COc1ccc(C2=NN(C3CCN(S(=O)(=O)c4cccc5c(N(C)C)cccc45)CC3)C(=O)[C@@H]3CC=CC[C@H]23)cc1OC [compound 10, (4aS,8aR)-4-(3,4-Dimethoxyphenyl)-2-[1-(5-dimethylamino-naphthalene-1-sulfonyl)-piperidin-4-yl]-4a,5,8,8a-tetrahydro-2H-phthalazin-1-one]
- Inhibition of PDE4 acitivity [measured as -logIC50 (mol/l)]: 9.57

SMILES: COc1ccc(C2=NN(C3CCN(c4ncccn4)CC3)C(=O)[C@@H]3CC=CC[C@H]23)cc1OC [compound 17, (4aS,8aR)-4-(3,4-Dimethoxyphenyl)-2-(1-pyrimidin-2-yl-piperidin-4-yl)-4a,5,8,8a-tetrahydro-2H-phthalazin-1-one]
- Inhibition of PDE4 acitivity [measured as -logIC50 (mol/l)]: 10.51

SMILES: COc1ccc(C2=NN(C3CCN(CC(=O)N4CCOCC4)CC3)C(=O)[C@@H]3CC=CC[C@H]23)cc1OC.Cl [compound 20, (4aS,8aR)-4-(3,4-Dimethoxyphenyl)-2-[1-(2-morpholin-4-yl-2-oxo-ethyl)-piperidin-4-yl]-4a,5,8,8a-tetrahydro-2H-phthalazin-1-one hydrochloride]
- Inhibition of PDE4 acitivity [measured as -logIC50 (mol/l)]: 10.40

SMILES: COc1ccc(C2=NN(C3CCN(CCc4ccccc4)CC3)C(=O)[C@@H]3CC=CC[C@H]23)cc1OC.Cl [compound 21, (4aS,8aR)-4-(3,4-Dimethoxyphenyl)-2-(1-phenethyl-piperidin-4-yl)-4a,5,8,8a-tetrahydro-2H-phthalazin-1-one hydrochloride]
- Inhibition of PDE4 acitivity [measured as -logIC50 (mol/l)]: 9.69

SMILES: CCOc1ccc(C2=NN(C3CCN(C(=O)N4CCOCC4)CC3)C(=O)[C@@H]3CC=CC[C@H]23)cc1OCC [compound 22, (4aS,8aR)-4-(3,4-Diethoxyphenyl)-2-[1-(morpholine-4-carbonyl)-piperidin-4-yl]-4a,5,8,8a-tetrahydro-2H-phthalazin-1-one]
- Inhibition of PDE4 acitivity [measured as -logIC50 (mol/l)]: 9.37

SMILES: COc1ccc(C2=NN(C3CCN(Cc4cccnc4)CC3)C(=O)[C@@H]3CC=CC[C@H]23)cc1OC.Cl.Cl [compound 23, (4aS,8aR)-4-(3,4-Dimethoxyphenyl)-2-(1-pyridin-3-ylmethyl-piperidin-4-yl)-4a,5,8,8a-tetrahydro-2H-phthalazin-1-one dihydrochloride]
- Inhibition of PDE4 acitivity [measured as -logIC50 (mol/l)]: 10.80

SMILES: CCOc1ccc(C2=NN(C3CCN(C(=O)CN4CCOCC4)CC3)C(=O)[C@@H]3CC=CC[C@H]23)cc1OCC.Cl [compound 25, (4aS,8aR)-4-(3,4-Diethoxyphenyl)-2-[1-(2-morpholin-4-yl-ethanoyl)-piperidin-4yl]-4a,5,8,8a-tetrahydro-2H-phthalazin-1-one hydrochloride]
- Inhibition of PDE4 acitivity [measured as -logIC50 (mol/l)]: 10.19
